Results: patent US20090036448A1, “PYRIMIDINE DERIVATIVES AND METHODS OF TREATMENT RELATED TO THE USE THEREOF” (TAISHO PHARMECUTICAL CO., LTD., priority 2004, published 2009)

These compounds were tested against MCH receptor (Homo sapiens, UniProt Q99705) (assay: Receptor binding assay with Radiolabelled MCH Ligand). Settings: class by percent of control at 10^-7 M or IC50.
MCH receptor, sequence (Q99705 whole entry): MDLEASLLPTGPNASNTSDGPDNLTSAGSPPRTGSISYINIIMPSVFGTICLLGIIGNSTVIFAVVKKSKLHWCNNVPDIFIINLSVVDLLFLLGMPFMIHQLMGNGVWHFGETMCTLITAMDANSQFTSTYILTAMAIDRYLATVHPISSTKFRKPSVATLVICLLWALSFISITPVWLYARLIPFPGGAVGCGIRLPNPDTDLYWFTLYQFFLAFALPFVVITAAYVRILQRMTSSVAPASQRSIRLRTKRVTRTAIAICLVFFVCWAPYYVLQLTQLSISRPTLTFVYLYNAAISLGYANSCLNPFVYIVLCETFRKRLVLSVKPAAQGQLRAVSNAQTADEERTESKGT
Set-up: expressed in transfected cells; host or cells: 293 cells (human kidney, ATCC), transient transfection; crude membranes
From the text: In addition to the methods described herein, another means for evaluating a test compound is by determining binding affinities to the MCH receptor. This type of assay generally requires a radiolabelled ligand to the MCH receptor. Absent the use of known ligands for the MCH receptor and radiolabels thereof, compounds of Formula (I) can be labelled with a radioisotope and used in an assay for evaluating the affinity of a test compound to the MCH receptor.
A radiolabelled MCH compound of Formula (I) can be used in a screening assay to identify/evaluate compounds. In general terms, a newly synthesized or identified compound (i.e., test compound) can be evaluated for its ability to reduce binding of the “radiolabelled compound of Formula (I)” to the MCH receptor. Accordingly, the ability to compete with the “radio-labelled compound of Formula (I)” or Radiolabelled MCH Ligand for the binding to the MCH receptor directly correlates to its binding affinity of the test compound to the MCH receptor.
293 cells (human kidney, ATCC), transiently transfected with 10 μg human MCH receptor and 60 μl Lipofectamine (per 15-cm dish), are grown in the dish for 24 hours (75% confluency) with a media change and removed with 10 mL/dish of Hepes-EDTA buffer (20 mM Hepes+10 mM EDTA, pH 7.4). The cells are then centrifuged in a Beckman Coulter centrifuge for 20 minutes, 17,000 rpm (JA-25.50 rotor). Subsequently, the pellet is resuspended in 20 mM Hepes+1 mM EDTA, pH 7.4 and homogenized with a 50-mL Dounce homogenizer and again centrifuged. After removing the supernatant, the pellets can be stored at −80° C., until used in binding assay. When used in the assay, membranes are thawed on ice for 20 minutes and then 10 mL of incubation buffer (20 mM Hepes, 1 mM MgCl2, 100 mM NaCl, pH 7.4) added. The membranes are then vortexed to resuspend the crude membrane pellet and homogenized with a Brinkmann PT-3100 Polytron homogenizer for 15 seconds at setting 6. The concentration of membrane protein is determined using the BRL Bradford protein assay.
For total binding, a total volume of 50 ul of appropriately diluted membranes (diluted in assay buffer containing 50 mM Tris HCl (pH 7.4), 1 mM MgCl2, and 1 mM EDTA; 5-50 ug protein) is added to 96-well polyproylene microtiter plates followed by addition of 100 μl of assay buffer and 50 μl of Radiolabelled MCH Ligand. For nonspecific binding, 50 μl of assay buffer is added instead of 100 μl and an additional 50 μl of 10 uM cold MCH is added before 50 μl of Radiolabelled MCH Ligand is added. Plates are then incubated at room temperature for 60-120 minutes. The binding reaction is terminated by filtering assay plates through a Microplate Devices GF/C Unifilter filtration plate with a Brandell 96-well plate harvester followed by washing with cold 50 mM Tris HCl, pH 7.4 containing 0.9% NaCl. Then, the bottom of the filtration plate are sealed, 50 ul of Optiphase Supermix is added to each well, the top of the plates are sealed, and plates are counted in a Trilux MicroBeta scintillation counter. For compound competition studies, instead of adding 100 μl of assay buffer, 100 μl of appropriately diluted test compound is added to appropriate wells followed by addition of 50 μl of Radiolabelled MCH Ligand.
The test compounds are initially assayed at 1 and 0.1 μM and then at a range of concentrations chosen such that the middle dose would cause about 50% inhibition of a Radiolabelled MCH Ligand binding (i.e., IC50). Specific binding in the absence of test compound (BO) is the difference of total binding (BT) minus non-specific binding (NSB) and similarly specific binding (in the presence of test compound) (B) is the difference of displacement binding (BD) minus non-specific binding (NSB). IC50 is determined from an inhibition response curve, logit-log plot of % B/BO vs. concentration of test compound.
Ki is calculated by the Cheng and Prustoff transformation: […]
In the case of CC(=O)OC(C(=O)N[C@H]1CC[C@@H](Nc2cc(N(C)C)nc(C)n2)CC1)c1ccccc1 (relative stereo) [compound 197], the class is reported as 3 (Class 3: The value of percent of control at 10^−7 M was more than 60% or the value of IC50 was more than 200 nM.).
In the case of Cc1nc(N[C@H]2CC[C@@H](NC(=O)[C@@H]3CCCN3S(=O)(=O)c3ccc(C(C)(C)C)cc3)CC2)cc(N(C)C)n1 (relative stereo) [compound 277], the class is reported as 3 (Class 3: The value of percent of control at 10^−7 M was more than 60% or the value of IC50 was more than 200 nM.).
With Cc1nc(N[C@H]2CC[C@@H](NC(=O)CC(C)S(=O)(=O)c3ccc(Cl)cc3)CC2)cc(N(C)C)n1 (relative stereo) [compound 281] the class was 3 (Class 3: The value of percent of control at 10^−7 M was more than 60% or the value of IC50 was more than 200 nM.).
In the case of Cc1nc(N[C@H]2CC[C@@H](NC(=O)C3CC(=O)N(Cc4cccs4)C3)CC2)cc(N(C)C)n1 (relative stereo) [compound 282], the class is reported as 3 (Class 3: The value of percent of control at 10^−7 M was more than 60% or the value of IC50 was more than 200 nM.).
With Cc1nc(N[C@H]2CC[C@@H](NC(=O)C(C)c3ccc(-c4ccccc4)c(F)c3)CC2)cc(N(C)C)n1 (relative stereo) [compound 284] the class was 3 (Class 3: The value of percent of control at 10^−7 M was more than 60% or the value of IC50 was more than 200 nM.).
With Cc1nc(N[C@H]2CC[C@@H](NC(=O)C(C)c3ccc(N4Cc5ccccc5C4=O)cc3)CC2)cc(N(C)C)n1 (relative stereo) [compound 286] the class was 3 (Class 3: The value of percent of control at 10^−7 M was more than 60% or the value of IC50 was more than 200 nM.).
For COc1ccc2c(c1)C(CC(=O)N[C@H]1CC[C@@H](Nc3cc(N(C)C)nc(C)n3)CC1)CC2=O (relative stereo) [compound 290], the class was 3 (Class 3: The value of percent of control at 10^−7 M was more than 60% or the value of IC50 was more than 200 nM.).
For Cc1nc(N[C@H]2CC[C@@H](NC(=O)C3CC(=O)c4ccccc43)CC2)cc(N(C)C)n1 (relative stereo) [compound 299], the class was 3 (Class 3: The value of percent of control at 10^−7 M was more than 60% or the value of IC50 was more than 200 nM.).
For Cc1ccc(C(=O)CC(Sc2ccc(Cl)cc2)C(=O)N[C@H]2CC[C@@H](Nc3cc(N(C)C)nc(C)n3)CC2)cc1 (relative stereo) [compound 310], the class was 3 (Class 3: The value of percent of control at 10^−7 M was more than 60% or the value of IC50 was more than 200 nM.).
For Cc1ccc(SC(CC(=O)c2ccc(F)cc2)C(=O)N[C@H]2CC[C@@H](Nc3cc(N(C)C)nc(C)n3)CC2)cc1 (relative stereo) [compound 311], the class was 3 (Class 3: The value of percent of control at 10^−7 M was more than 60% or the value of IC50 was more than 200 nM.).
In the case of Cc1nc(N[C@H]2CC[C@@H](NC(=O)C(C)c3ccc(C(=O)c4cccs4)cc3)CC2)cc(N(C)C)n1 (relative stereo) [compound 312], the class is reported as 3 (Class 3: The value of percent of control at 10^−7 M was more than 60% or the value of IC50 was more than 200 nM.).
Cc1nc(N[C@H]2CC[C@@H](NC(=O)CC(C)C(F)(F)F)CC2)cc(N(C)C)n1 (relative stereo) [compound 314] was tested, and the class was 3 (Class 3: The value of percent of control at 10^−7 M was more than 60% or the value of IC50 was more than 200 nM.).
With Cc1nc(N[C@H]2CC[C@@H](NC(=O)C(C(=O)OCc3ccccc3)c3ccccc3)CC2)cc(N(C)C)n1 (relative stereo) [compound 321] the class was 3 (Class 3: The value of percent of control at 10^−7 M was more than 60% or the value of IC50 was more than 200 nM.).
In the case of COC(=O)[C@H](Cc1ccccc1)NC(=O)N[C@H]1CC[C@@H](Nc2cc(N(C)C)nc(C)n2)CC1 (relative stereo) [compound 411], the class is reported as 3 (Class 3: The value of percent of control at 10^−7 M was more than 60% or the value of IC50 was more than 200 nM.).
Cc1nc(N[C@H]2CC[C@@H](NC(=O)NC(C)c3cccc4ccccc34)CC2)cc(N(C)C)n1 (relative stereo) [compound 415, N-(cis-4-{[6-(dimethylamino)-2-methylpyrimidin-4-yl]amino}cyclohexyl)-N′-[1-(1-naphthyl)ethyl]urea] was tested, and the class was 1 (Class 1: The value of percent of control at 10^−7 M was less than 40% or the value of IC50 was less than 50 nM.).
In the case of Cc1nc(N[C@H]2CC[C@@H](NC(=O)c3ccc4c(c3)C(=O)c3ccccc3C4=O)CC2)cc(N(C)C)n1 [compound 198], the class is reported as 3 (Class 3: The value of percent of control at 10^−7 M was more than 60% or the value of IC50 was more than 200 nM.).
For CC(=O)N[C@H]1CC[C@@H](Nc2cc(N(C)C)nc(C)n2)CC1 [compound 199], the class was 3 (Class 3: The value of percent of control at 10^−7 M was more than 60% or the value of IC50 was more than 200 nM.).
With Cc1nc(N[C@H]2CC[C@@H](NC(=O)c3ccccc3)CC2)cc(N(C)C)n1 [compound 200, N-(cis-4-{[6-(dimethylamino)-2-methylpyrimidin-4-yl]amino}cyclohexyl)benzamide] the class was 2 (Class 2: The value of percent of control at 10^−7 M was from 40% to 60% or the value of IC50 was from 50 nM to 200 nM.).
For Cc1nc(N[C@H]2CC[C@@H](NC(=O)c3ccc(-c4ccccc4)cc3)CC2)cc(N(C)C)n1 [compound 201], the class was 3 (Class 3: The value of percent of control at 10^−7 M was more than 60% or the value of IC50 was more than 200 nM.).
In the case of Cc1nc(N[C@H]2CC[C@@H](NC(=O)c3ccc(C(C)(C)C)cc3)CC2)cc(N(C)C)n1 [compound 202], the class is reported as 3 (Class 3: The value of percent of control at 10^−7 M was more than 60% or the value of IC50 was more than 200 nM.).
In the case of Cc1nc(N[C@H]2CC[C@@H](NC(=O)c3cc4ccccc4s3)CC2)cc(N(C)C)n1 [compound 203], the class is reported as 3 (Class 3: The value of percent of control at 10^−7 M was more than 60% or the value of IC50 was more than 200 nM.).
For Cc1nc(N[C@H]2CC[C@@H](NC(=O)Cc3ccc(OCc4ccccc4)cc3)CC2)cc(N(C)C)n1 [compound 204], the class was 3 (Class 3: The value of percent of control at 10^−7 M was more than 60% or the value of IC50 was more than 200 nM.).
In the case of Cc1nc(N[C@H]2CC[C@@H](NC(=O)c3ccc(Br)cc3)CC2)cc(N(C)C)n1 [compound 205], the class is reported as 3 (Class 3: The value of percent of control at 10^−7 M was more than 60% or the value of IC50 was more than 200 nM.).
For Cc1nc(N[C@H]2CC[C@@H](NC(=O)COCc3ccccc3)CC2)cc(N(C)C)n1 [compound 206], the class was 3 (Class 3: The value of percent of control at 10^−7 M was more than 60% or the value of IC50 was more than 200 nM.).
For Cc1nc(N[C@H]2CC[C@@H](NC(=O)c3ccc4nonc4c3)CC2)cc(N(C)C)n1 [compound 207, N-(cis-4-{[6-(dimethylamino)-2-methylpyrimidin-4-y]amino}cyclohexyl)-2,1,3-benzoxadiazole-5-carboxamide], the class was 3 (Class 3: The value of percent of control at 10^−7 M was more than 60% or the value of IC50 was more than 200 nM.).
Cc1nc(N[C@H]2CC[C@@H](NC(=O)c3ccc(Cl)cc3)CC2)cc(N(C)C)n1 [compound 208, 4-chloro-N-(cis-4-{[6-(dimethylamino)-2-methylpyrimidin-4-yl]amino}cyclohexyl)benzamide] was tested, and the class was 2 (Class 2: The value of percent of control at 10^−7 M was from 40% to 60% or the value of IC50 was from 50 nM to 200 nM.).
Cc1nc(N[C@H]2CC[C@@H](NC(=O)COc3ccc(Cl)cc3)CC2)cc(N(C)C)n1 [compound 209] was tested, and the class was 3 (Class 3: The value of percent of control at 10^−7 M was more than 60% or the value of IC50 was more than 200 nM.).
